According to patent EP4364726A1, “METHOD FOR TREATING A CANCER AND/OR CANCER METASTASIS” (Nano Targeting & Therapy Biopharma Inc., priority 2022, dated 2024):

Columns and labels:
[1] = test system: chicken embryo chorioallantoic membrane (CAM) tumor model; test: Chorioallantoic membrane (CAM) analysis for angiogenesis; assay type: in vivo; conditions: administered on day 12, observed days 14 and 16
Protocol: To evaluate the effect of MSNs on tumor angiogenesis, chicken embryo chorioallantoic membrane (CAM) tumor model was used. The fertilized eggs were incubated in the incubator for 10 days, then a small window was opened in the eggshell and the cancer cells were implanted on the CAM membrane near the aorta. MSN or Doxorubicin (DOX) was administered on day 12 when the tumor was formed and the angiogenesis near the tumor was observed on days 14 and 16.

[2] = test system: luciferase-expressing HCT-116 cells; test: Orthotopic colorectal cancer metastasis model (cells injected into cecum wall); assay type: in vivo, mice; conditions: orthotopic HCT-116-luc, 40 mg/kg twice per week, 8 administrations
Protocol: 2×10^6 luciferase-expressing HCT-116 cells were directly injected into the wall of the cecum with surgery to establish the orthotopic colorectal cancer metastasis model, this model spontaneously produces highly metastatic tumors in adjacent intestinal tissues, peritoneum, and distance metastasis (spleen, kidney, liver, and diaphragm). Tumor-bearing mice received IRI and IRI@NTT2_186k at dose levels of 40 mg/kg twice per week for a total of 8 administrations. The tumor growth and metastasis were observed by the IVIS system once a week and body weight was observed over the study period. To assess overall survival, animals were monitored up to the point of spontaneous death or approaching moribund status.

[3] = cited from earlier work

Compound	blood vessels near the tumor [1]	tumor course once treatment was discontinued [2]	tumor growth rate [2]	inhibition of primary tumor growth and metastases ([2]; IVIS)	pka [3]
COc1cccc2c1C(=O)c1c(O)c3c(c(O)c1C2=O)C[C@@](O)(C(=O)CO)C[C@@H]3O[C@H]1C[C@H](N)[C@H](O)[C@H](C)O1 [DOX, Doxorubicin]	blood vessels exhibited disintegration and decreased density				
CCc1c2c(nc3ccc(OC(=O)N4CCC(N5CCCCC5)CC4)cc13)-c1cc3c(c(=O)n1C2)COC(=O)[C@]3(O)CC [IRI, irinotecan]		tumor relapse and tumor metastases were observed	slower tumor growth rate compared to the control group	inefficient inhibition of tumor growth and metastases	about 10.9
